Source: patent US20150010933A1, “Novel Screening Methods” (The Trustees of the University of Pennsylvania, priority 2012, published 2015)

What was measured:
Assay type in all cases: biochemical
[1] = biological target: ATP synthesis activity of M. smegmatis membranes; test: ATP synthesis assay with M. smegmatis membranes (luciferase/luciferin luminescence, 384 well plate); conditions: 10 μg/ml M. smegmatis membrane, 1 mM NADH, 25 μM ADP, 10 mM K-Pi, pH 7.0, total volume 20 μL; read-out: IC50, ATP synthesis activity normalized to the positive control
[2] = tested on: NADH oxidase activity of M. smegmatis membranes; test: NADH oxidase activity assay with M. smegmatis membranes; conditions: 0.2 mM NADH, 10 μg/ml membrane, pH 7.0
Description: FIG. 10 is a graph illustrating the effect of TMC207 on the NADH oxidase activity of M. smegmatis membranes. The assay was carried out in the presence of various concentrations of TMC207. The reactions contained 0.2 mM NADH and 10 μg/ml membrane in 50 mM Hepes/2 mM MgCl2 (pH 7.0) buffer.

[3] = tested on: ΔpH across M. smegmatis membranes; test: ΔpH across the membranes monitored with pH sensitive fluorescent dye ACMA; conditions: 1 μM ACMA, 10 μg/ml M. smegmatis membrane, initiated with 1 mM NADH, pH 7.0
Description: FIG. 11 is a graph illustrating the effect of TMC207 on ΔpH across the membranes. ΔpH was monitored by using a pH sensitive fluorescent dye 9-amino-6-chloro-2-methoxyaridine (ACMA). The reactions contained 1 μM ACMA, 10 μg/ml M. smegmatis membrane in 5 mM Hepes/2 mM MgCl2 buffer (pH 7.0). The reaction was initiated by addition of 1 mM NADH (open symbols) and NADH was omitted in negative controls (closed symbols). Fluorescence was measured by a plate reader with 420 nm for excitation and 510 nm for emission wavelength.

COc1nc2ccc(Br)cc2cc1[C@@H](c1ccccc1)[C@@](O)(CCN(C)C)c1cccc2ccccc12 [TMC207, (1R,2S)-1-(6-bromo-2-methoxy-3-quinolyl)-4-dimethylamino-2-(1-naphthyl)-1-phenyl-butan-2-ol]
IC50 [1]: 0.147 nM | inhibition of NADH oxidase activity ([2]; at 10 μM): did not inhibit | inhibition of NADH oxidase activity ([2]; at only high concentrations): marginal inhibition | effect on ΔpH across the membrane [3]: did not affect
